Data set [1] deals with mRNAs encoding ATF4 and ATF4-regulated targets CHOP and TRIB3. In words: ISR marker mRNA levels in brain tissue (qPCR) after one Gb injection. The format is in vivo, mouse. Conditions: one dose 10 mg/kg i.p., vs saline. On the procedure:
(§1) FIG. 10. […] Statistical analysis was performed with two-way ANOVA (*, p<0.05, **, p<0.01, ***, p<0.001).
(§2) As (unpublished) part of this study, we investigated the effect of Gb on the expression of ATF4 and its regulated transcriptome in mice. […] In short, we injected one dose of 10 mg/kg Gb intraperitoneally into four wildtype (wt) and four 2b5ho mice. Saline-injected wt and 2b5ho mice were used as negative controls for measuring Gb effects on ISR markers. […] Organs were removed, snap frozen in liquid nitrogen and stored at −80° C. Tissue samples for RNA and protein analyses were prepared as described. In postmortem brain tissue we measured levels of phosphorylated eIF2a with Western blot and levels of mRNAs encoding ATF4 and ATF4-regulated targets CHOP and TRIB3 with qPCR.

Data set [2] has as its system 2b5^ho mice. In words: In situ hybridization for Plp-expressing cells after Guanabenz treatment. Type of data set: in vivo, mouse. Conditions: Guanabenz i.p. weekly 2-10 months, forebrain (corpus callosum) and cerebellum, vs saline.
Description: (§3) Tissue sections of 11 WT and 10 2b5^ho (carrying a homozygous Arg191His mutation in the Eif2b5 gene [7]) animals of 2, 5 or 7 months of age were collected after intracardiac perfusion with 4% paraformaldehyde (PFA). The brains were postfixed in 4% PFA for 1-2 days, after which half of the brain was embedded in paraffin and the other half was incubated overnight in 30% sucrose and snapfrozen in optimum cutting temperature compound (Sakura). […] To test the effect of Guanabenz, 11 female 2b5^ho littermates were injected with saline (n=5) or Guanabenz (10 mg/kg; n=6) i.p. every week from 2 months until 10 months of age. Animals were randomly assigned to the Guanabenz or saline group, and single animals were taken as experimental units. At 11 months of age all mice were sacrificed and the brains were used for analysis. The brains of 3 saline- and 4 Guanabenz-injected animals were perfused as described and used for immunostaining and in situ hybridization. […]
In situ hybridization targeting proteolipid protein (Plp) mRNA was performed on PFA-fixed snapfrozen tissue as previously described [7, 25]. […] The number of Plp-positive cells was analyzed in the rostrum and splenium of the corpus callosum, and in the white matter of the cerebellum. For each area 3 different pictures were taken with a 100× objective lens and cells were counted in a 100×200 μm square.
The test system of data set [3] is 2b5^ho mice. In words: Nestin cell count in corpus callosum after Guanabenz treatment of VWM mice. The format is in vivo, mouse. Conditions: Guanabenz i.p. weekly from 2 to 10 months of age, analysed at 11 months, vs saline, p=0.289, not significant.
Description: as §3
(§4) Mouse tissue was processed for immunostaining as previously described [7]. […] Stainings were analyzed with a LeicaDM6000B microscope (Leica Microsystems). […]
Astrocytes double-positive for nestin and GFAP were counted in the splenium and rostrum of the corpus callosum, on 100× magnification pictures. Total cell number was determined by counting the DAPI-positive nuclei. For each animal, at least 3 slices were stained and counted. […]
For a further data set, the system named is ATF4 expression. Description: Stress-sensitive ATF4 luciferase reporter transfection assay (pNL1.1-mATF4) in U373 cells. The format is cell-based, human. Conditions: 15 μM compound added with 3 nM thapsigargin for 16 hours. On the procedure:
FIG. 9. […] ATF4 expression was assessed with a luciferase reporter construct under regulation of the murine Atf4 promoter and 5′ non-coding region. Cells were transfected as described. The ISR was induced by administration of 3 nM thapsigargin (TG) to the cell culture medium. […] Guanfacin (Gf), an a2 adrenergic receptor agonist without reported GADD34 modulating activity, was included in parallel as negative control. […] Statistical analyses were performed for individual compounds with a paired t-test (*, p<0.05, **, p<0.01).
The a2 adrenergic receptor agonist Guanabenz (Gb) has been reported to also target GADD34 and thereby impact on a negative feedback loop of the ISR [16]. GADD34 promotes dephosphorylation of eIF2P. Gb is thought to inhibit GADD34, it is thereby though to increase and prolong eIF2a phosphorylation and consequently increases production of ATF4 and its regulated transcriptome. We tested the effect of Gb on ATF4 production in U373 cell lines using a stress-sensitive transfection assay. Transfections were performed with the pNL1.1-mATF4 reporter construct, in which expression of the reporter gene is controlled by ISR-responsive sequences. Expression from the reporter construct was measured 2 days after transfection with a commercially available chemiluminescent assay and can be directly interpreted as a measure for ATF4 expression.
ATF4 expression was investigated in the absence or presence of ISR activation. […] Gb was added together with thapsigargin to the culture medium to test the effect of Gb on ATF4 expression. […] The eIF2B-enhancing compound ISRIB was included as positive control for ATF4-regulation.

The subject of a further data set is eIF2a phosphorylation. Description: eIF2a phosphorylation in brain tissue (Western blot) after one Gb injection. Conditions: wt and 2b5ho mice, one dose 10 mg/kg i.p., vs saline. The format is in vivo, mouse. On the procedure:
as §1, §2

The conditions of data set [4]: in vivo; cited from earlier work.
The subject of data set [5] is 2b5^ho mice. In words: Western blot for myelin proteins MBP and MOG after Guanabenz treatment. Type of data set: in vivo, mouse. Conditions: Guanabenz vs saline, n=2.
Description: To test the effect of Guanabenz, 11 female 2b5^ho littermates were injected with saline (n=5) or Guanabenz (10 mg/kg; n=6) i.p. every week from 2 months until 10 months of age. Animals were randomly assigned to the Guanabenz or saline group, and single animals were taken as experimental units. At 11 months of age all mice were sacrificed and the brains were used for analysis. The brains of 3 saline- and 4 Guanabenz-injected animals were perfused as described and used for immunostaining and in situ hybridization. The brains of 2 saline- and 2 Guanabenz-injected animals were snapfrozen in liquid nitrogen and used for western blot analysis. No animals were excluded from any analysis.
Half of the forebrain and the whole cerebellum of 2 saline- and 2 Guanabenz-treated animals were separately used for western blot analysis. Forebrains were lysed in lysis buffer (50 mM Hepes, 150 mM NaCl, 1 mM EDTA, 2.5 mM ethylene glycol-bis(β-aminoethyl-ether)-N,N,N′,N′-tetraacetic acid, 0.1% Triton-X100, 10% glycerol, 1 mM dithiothreitol) supplemented with protease inhibitor cocktail (ThermoFisher Scientific) using a dounce tissue grinder (Sigma-Aldrich). […] Supernatants were collected and protein concentrations were measured with a Bradford assay. […] Secondary antibodies were raised against mouse or rabbit and conjugated with horseradish peroxidase. Blots were developed with SuperSignal™ West Femto Maximum Sensitivity Substrate (ThermoFisher Scientific) and measured in an Odyssey® Fc Imaging System (LI-COR Inc). Intensity of bands was quantified with ImageJ software and corrected for total amount of protein.
In data set [6] the test system is 2b5^ho mice. Description: Analysis of Bergmann glia translocation (S100ß/GFAP staining) after Guanabenz treatment. Type of data set: in vivo, mouse.
Description: Tissue sections of 11 WT and 10 2b5^ho (carrying a homozygous Arg191His mutation in the Eif2b5 gene [7]) animals of 2, 5 or 7 months of age were collected after intracardiac perfusion with 4% paraformaldehyde (PFA). The brains were postfixed in 4% PFA for 1-2 days, after which half of the brain was embedded in paraffin and the other half was incubated overnight in 30% sucrose and snapfrozen in optimum cutting temperature compound (Sakura). […] To test the effect of Guanabenz, 11 female 2b5^ho littermates were injected with saline (n=5) or Guanabenz (10 mg/kg; n=6) i.p. every week from 2 months until 10 months of age. Animals were randomly assigned to the Guanabenz or saline group, and single animals were taken as experimental units. At 11 months of age all mice were sacrificed and the brains were used for analysis. […]
as §4
Bergmann glia pathology was analyzed in S100ß-stained sections. […] All the S100-positive cell bodies inside this band were counted and considered correctly localized. The S100ß-positive cell bodies located outside the band in the molecular layer were counted and considered as translocated Bergmann glia. The amount of translocated cell bodies was expressed as a ratio to the total number of S100ß-positive cell bodies counted.

Consider 3 compounds from patent publication US11382920B2, “Therapeutic effects of Guanabenz treatment in vanishing white matter” (Stichting VUmc, priority 2017, dated 2022).

As for `NC(N)=N/N=C/c1c(Cl)cccc1Cl` [Guanabenz, guanabenz], in data set [1] (4 and 24 hours), the “Atf4 mRNA levels in brain tissue, 2b5ho mice” value was “transient decrease” and the “Ddit3 mRNA expression in brain tissue, 2b5ho mice” value is given as “reduced at both time points”. Besides, the “Trib3 mRNA expression in brain tissue, 2b5ho mice” value in data set [1] (4 and 24 hours, not significant at 4 hours) is recorded as “reduced at both time points”. Moreover, the “Atf4 mRNA expression level in brain tissue, wt mice” value in data set [1] (n=2) is on record as “unaffected”. Also, the “number of Plp-expressing cells” value with 2b5^ho mice [2] is “slightly increased in the forebrain and cerebellum, though not significantly”. Besides, the “average decrease of number of nestin-positive cells in the corpus callosum” value in the data set with 2b5^ho mice [3] was found to be 27%. In addition, the “ATF4 expression under stress” value with ATF4 expression is given as “increased”. In the data set with eIF2a phosphorylation, the “levels of eIF2a phosphorylation in brain tissue, 4 hours after injection” value is given as “lower than in saline-injected animals” and the “levels of eIF2a phosphorylation in brain tissue, 24 hours after injection” value was “normalized”. Moreover, the half-life in blood/tissue result in data set [4] is “approximately 6 hours”. Further, in the data set with 2b5^ho mice [5], the “amount of MBP protein, cerebellum” value was “increased”; the “amount of MOG protein, cerebellum” value is “increased”; the “amount of MOG protein, forebrain” value is listed as “increased”. The “GFAP expression and Bergmann glia morphology” value in the data set with 2b5^ho mice [6] (Guanabenz i.p. weekly 2-10 months, cerebellum) was “decreased GFAP expression and a normalization of Bergmann glia morphology”. In addition, the “decrease of number of translocated Bergmann glia cell bodies” value in the data set with 2b5^ho mice [6] (Guanabenz i.p. weekly from 2 to 10 months of age, analysed at 11 months, vs saline, p=0.032, reached numbers of untreated WT) was determined as 30%.

In the case of `N=C(N)NC(=O)Cc1c(Cl)cccc1Cl` [Guanfacine, guanfacine], in the data set on ATF4 expression, the “ATF4 expression under stress” value is “small, variable and not statistically significant”.

In the case of `O=C(COc1ccc(Cl)cc1)NC1CCC(NC(=O)COc2ccc(Cl)cc2)CC1` (centres unmarked) [ISRIB], in the data set with ATF4 expression, the “ATF4 expression under stress” value was “reduced”.
